Results on eight molecules are retold here after patent US20230016424A1, “HYBRID AMIDE DERIVATIVES OF AMPHOTERICIN B” (The Board of Trustees of the University of Illinois, priority 2019, published 2023).

Converted amounts (≈) assume the structure as drawn.

In one experiment the test system is A. fumigatus 1163. Put plainly: MIC. It counts as cell-based.
In another experiment the test system is C. tropicalis. Put plainly: MIC. Type of experiment: cell-based.
For another experiment, the system named is C. albicans. Put plainly: MIC. Type of experiment: cell-based.
For a further experiment, the system named is C. albicans SN250. Put plainly: MIC. Type of experiment: cell-based, Candida albicans.
The test system of experiment [1] is C. albicans SN250, C. albicans, C. krusei, C. glabrata, C. tropicalis, A. fumigatus 91, 1163, 1100. Description: Average MIC over the tested strains. Type of experiment: cell-based. On the set-up: Avg. MIC of AmB amide: unit not given here. As to conditions: for MIC: average over the 8 listed strains; for Average MIC for AmB analogue: value of the corresponding AmB analogue.

The next experiment deals with C. krusei. Description: MIC. It counts as cell-based.
A further experiment has as its system C. glabrata. Put plainly: MIC. Type of experiment: cell-based.
The subject of another experiment is A. fumigatus 91. Put plainly: MIC. Type of experiment: cell-based.
Another experiment deals with A. fumigatus 1100. Description: MIC. It counts as cell-based.
[2] abbreviates: Tables 8 and 9, average over the 8 listed strains.

As usually defined, the MIC is the least concentration at which growth counts as inhibited. For the molecule `CC(O)CNC(=O)C1C(O)CC2(O)CC(O)CC(O)C(O)CCC(O)CC(O)CC(=O)OC(C)C(C)C(O)C(C)C=CC=CC=CC=CC=CC=CC=CC(OC3OC(C)C(O)C(N)C3O)CC1O2` (stereo not shown) [AH], the “MIC A. fumigatus 1163” value against A. fumigatus 1163 came out at 1 µM (≈ 0.981 µg/mL). In addition, the “MIC C. tropicalis” value against C. tropicalis stood at 0.45 µM (≈ 0.442 µg/mL). For the same molecule, the “MIC C. albicans” value against C. albicans worked out at 0.35 µM (≈ 0.343 µg/mL). The “MIC C. albicans SN250” value in the experiment with C. albicans SN250 is 0.35 µM (≈ 0.343 µg/mL). Besides, in experiment [1], the MIC was found to be 0.763 µM. For the same molecule, in the experiment with C. krusei, the “MIC C. krusei” value came out at 0.75 µM (≈ 0.736 µg/mL). Besides, the “MIC C. glabrata” value against C. glabrata amounted to 0.2 µM (≈ 0.196 µg/mL). The “MIC A. fumigatus 91” value against A. fumigatus 91 worked out at 2 µM (≈ 1.96 µg/mL). Also, the “MIC A. fumigatus 1100” value in the experiment with A. fumigatus 1100 was 1 µM (≈ 0.981 µg/mL).

In the case of `CC1C=CC=CC=CC=CC=CC=CC=CC(OC2OC(C)C(O)C(N)C2O)CC2OC(O)(CC(O)CC(O)C(O)CCC(O)CC(O)CC(=O)OC(C)C(C)C1O)CC(O)C2C(=O)NCC(C)(C)O` (stereo not shown) [AI], in the experiment with A. fumigatus 1163, the “MIC A. fumigatus 1163” value stood at 1 µM (≈ 0.995 µg/mL). The “MIC C. tropicalis” value in the experiment with C. tropicalis was 0.45 µM (≈ 0.448 µg/mL). Moreover, in the experiment on C. albicans, the “MIC C. albicans” value amounted to 0.4 µM (≈ 0.398 µg/mL). Further, the “MIC C. albicans SN250” value against C. albicans SN250 turned out to be 0.3 µM (≈ 0.299 µg/mL). Besides, the MIC in experiment [1] is listed as 0.675 µM. Besides, the “MIC C. krusei” value in the experiment with C. krusei was 1 µM (≈ 0.995 µg/mL). Moreover, the “MIC C. glabrata” value in the experiment with C. glabrata stood at 0.25 µM (≈ 0.249 µg/mL). The “MIC A. fumigatus 91” value against A. fumigatus 91 came to 1 µM (≈ 0.995 µg/mL). The “MIC A. fumigatus 1100” value in the experiment with A. fumigatus 1100 came to 1 µM (≈ 0.995 µg/mL).

As for `CC1C=CC=CC=CC=CC=CC=CC=CC(OC2OC(C)C(O)C(N)C2O)CC2OC(O)(CC(O)CC(O)C(O)CCC(O)CC(O)CC(=O)OC(C)C(C)C1O)CC(O)C2C(=O)NCC(O)CO` (stereo not shown) [AK], in the experiment with A. fumigatus 1163, the “MIC A. fumigatus 1163” value was determined as 0.5 µM (≈ 0.499 µg/mL). Also, the “MIC C. tropicalis” value in the experiment with C. tropicalis turned out to be 0.3 µM (≈ 0.299 µg/mL). Further, in the experiment on C. albicans, the “MIC C. albicans” value came out at 0.25 µM (≈ 0.249 µg/mL). The “MIC C. albicans SN250” value with C. albicans SN250 turned out to be 0.15 µM (≈ 0.15 µg/mL). In experiment [1], the MIC came to 0.431 µM. Moreover, the “MIC C. krusei” value against C. krusei worked out at 0.4 µM (≈ 0.399 µg/mL). The “MIC C. glabrata” value with C. glabrata was 0.1 µM (≈ 0.0997 µg/mL). Also, the “MIC A. fumigatus 91” value against A. fumigatus 91 stood at 1 µM (≈ 0.997 µg/mL). In addition, the “MIC A. fumigatus 1100” value against A. fumigatus 1100 worked out at 0.75 µM (≈ 0.748 µg/mL).

In the case of `CC1C=CC=CC=CC=CC=CC=CC=CC(OC2OC(C)C(O)C(N)C2O)CC2OC(O)(CC(O)CC(O)C(O)CCC(O)CC(O)CC(=O)OC(C)C(C)C1O)CC(O)C2C(=O)NC1CC1` (stereo not shown) [AR3], the “MIC A. fumigatus 1163” value in the experiment on A. fumigatus 1163 is 500 µM (≈ 482 µg/mL). For the same molecule, the “MIC C. tropicalis” value against C. tropicalis was found to be 250 µM (≈ 241 µg/mL). Moreover, the “MIC C. albicans” value in the experiment with C. albicans came out at 250 µM (≈ 241 µg/mL). Moreover, the “Average MIC” value in experiment [1] (setting [2]) was determined as 438 µM. Further, the “MIC C. krusei” value in the experiment on C. krusei came to 250 µM (≈ 241 µg/mL).

For the molecule `CC1C=CC=CC=CC=CC=CC=CC=CC(OC2OC(C)C(O)C(N)C2O)CC2OC(O)(CC(O)CC(O)C(O)CCC(O)CC(O)CC(=O)OC(C)C(C)C1O)CC(O)C2C(=O)NC1CCCCCCCCCCC1` (stereo not shown) [AR12], the “MIC C. tropicalis” value in the experiment with C. tropicalis came out at 3000 µM (≈ 3270 µg/mL). Further, the “MIC C. albicans” value in the experiment on C. albicans was found to be 2000 µM (≈ 2180 µg/mL). For the same molecule, the “Average MIC” value in [1] (setting [2]) came out at 5000 µM. The “MIC C. krusei” value against C. krusei is 8000 µM (≈ 8720 µg/mL). In addition, the “MIC A. fumigatus 1100” value in the experiment on A. fumigatus 1100 stood at 8000 µM (≈ 8720 µg/mL).

On to `CC1C=CC=CC=CC=CC=CC=CC=CC(OC2OC(C)C(O)C(N)C2O)CC2OC(O)(CC(O)CC(O)C(O)CCC(O)CC(O)CC(=O)OC(C)C(C)C1O)CC(O)C2C(=O)NC1CC1` (stereo not shown) [BD], for which the “MIC A. fumigatus 1163” value with A. fumigatus 1163 came to 6 µM (≈ 5.78 µg/mL). In the experiment with C. tropicalis, the “MIC C. tropicalis” value worked out at 0.5 µM (≈ 0.482 µg/mL). In the experiment with C. albicans, the “MIC C. albicans” value was 1 µM (≈ 0.963 µg/mL). The “MIC C. albicans SN250” value in the experiment with C. albicans SN250 amounted to 0.5 µM (≈ 0.482 µg/mL). Moreover, in [1], the MIC was found to be 3.063 µM. The “Average MIC for AmB analogue” value in experiment [1] (not of the C2’epi compound) is 0.500 μM. The “MIC C. krusei” value in the experiment with C. krusei was determined as 4 µM (≈ 3.85 µg/mL). The “MIC C. glabrata” value in the experiment with C. glabrata turned out to be 0.5 µM (≈ 0.482 µg/mL). For the same molecule, in the experiment with A. fumigatus 91, the “MIC A. fumigatus 91” value was determined as 8 µM (≈ 7.71 µg/mL). The “MIC A. fumigatus 1100” value against A. fumigatus 1100 amounted to 4 µM (≈ 3.85 µg/mL).

`CC1C=CC=CC=CC=CC=CC=CC=CC(OC2OC(C)C(O)C(N)C2O)CC2OC(O)(CC(O)CC(O)C(O)CCC(O)CC(O)CC(=O)OC(C)C(C)C1O)CC(O)C2C(=O)NC1CCC1` (stereo not shown) [BE]: in the experiment on A. fumigatus 1163, the “MIC A. fumigatus 1163” value was 8 µM (≈ 7.82 µg/mL). Besides, the “MIC C. tropicalis” value with C. tropicalis worked out at 1 µM (≈ 0.977 µg/mL). Besides, the “MIC C. albicans” value against C. albicans was determined as 2 µM (≈ 1.95 µg/mL). Moreover, the “MIC C. albicans SN250” value with C. albicans SN250 was 1 µM (≈ 0.977 µg/mL). The MIC in [1] amounted to 3.563 µM. In addition, the “Average MIC for AmB analogue” value in [1] (not of the C2’epi compound) turned out to be 1.281 μM. In addition, in the experiment on C. krusei, the “MIC C. krusei” value is 4 µM (≈ 3.91 µg/mL). The “MIC C. glabrata” value in the experiment with C. glabrata stood at 0.5 µM (≈ 0.489 µg/mL). In addition, the “MIC A. fumigatus 91” value in the experiment on A. fumigatus 91 was determined as 8 µM (≈ 7.82 µg/mL). Moreover, the “MIC A. fumigatus 1100” value against A. fumigatus 1100 is 4 µM (≈ 3.91 µg/mL).

`CC1C=CC=CC=CC=CC=CC=CC=CC(OC2OC(C)C(O)C(N)C2O)CC2OC(O)(CC(O)CC(O)C(O)CCC(O)CC(O)CC(=O)OC(C)C(C)C1O)CC(O)C2C(=O)NCC(F)F` (stereo not shown) [BQ]: the “Average MIC” value stood at 1.625 µM in [1] (Table 12, C16 amides of C2'epiAmB) and 1625 µM in experiment [1] (Table 13, C16 amides of C2’epiAmB). In addition, the “Avg. MIC of AmB amide” value in experiment [1] (value of the corresponding C16 amide of AmB, not of the C2’epi compound) is reported as 0.30. The “MIC A. fumigatus 91” value with A. fumigatus 91 was found to be 4000 µM (≈ 3950 µg/mL).
